#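 Results reflect a 48-hour exposure of cells in 96-well plates to compound at five concentrations. At the GI50, growth is halved.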 Activity calls are given as the source filed them. Rule as the data show it: active = GI50 up to about 1.1 µM and inactive = higher.
# Assays:
# Experiment in all cases: NCI anticancer screen, dose series, 48 h
# [1] = test system: KM12
# [2] = test system: MDA-N
# [3] = test system: A498
# [4] = test system: M14
# [5] = test system: HOP-92
# [6] = test system: ACHN
# [7] = test system: PC-3
# [8] = test system: OVCAR-4
# [9] = test system: UACC-62
# [10] = test system: NCI-H23
# [11] = test system: SK-MEL-28
# [12] = test system: SK-OV-3
# [13] = test system: UO-31
# [14] = test system: SW-620
# [15] = test system: A549
# [16] = test system: K562
# [17] = test system: SK-MEL-2
# [18] = test system: OVCAR-3
# [19] = test system: HT-29
# [20] = test system: MDA-MB-435
# [21] = test system: HOP-62
# [22] = test system: OVCAR-5
# [23] = test system: COLO 205
# [24] = test system: RPMI-8226
# [25] = test system: Malme-3M
# [26] = test system: HCT-15
# [27] = test system: NCI/ADR-RES
# [28] = test system: CAKI-1
# [29] = test system: TK-10
# [30] = test system: U-251
# [31] = test system: RXF 393
# [32] = test system: MDA-MB-231
# [33] = test system: SF-539
# [34] = test system: SK-MEL-5
# [35] = test system: SN12C
# [36] = test system: OVCAR-8
# [37] = test system: MOLT-4
# [38] = test system: MCF7
# [39] = test system: SF-295
# [40] = test system: SNB-19
# [41] = test system: NCI-H522
# [42] = test system: HCT-116
# [43] = test system: SF-268
# [44] = test system: 786-0
# [45] = test system: DU-145
# [46] = test system: T47D
# [47] = test system: NCI-H226
# [48] = test system: HL-60
# [49] = test system: LOX IMVI
# [50] = test system: EKVX
# [51] = test system: CCRF-CEM
# [52] = test system: IGROV-1
# [53] = test system: SR
# [54] = test system: SNB-75
# [55] = test system: HCC 2998
# [56] = test system: UACC-257
smiles,measurement,setting,value
Cc1cn(C2CC(N(O)C(N)=O)C(CO)O2)c(=O)[nH]c1=O (stereo not drawn),GI50,[1],> 100 µM (inactive)
same,GI50,[2],> 100 µM (inactive)
same,GI50,[3],> 100 µM (inactive)
same,GI50,[4],> 100 µM (inactive)
same,GI50,[5],> 100 µM (inactive)
same,GI50,[6],> 100 µM (inactive)
same,GI50,[7],> 100 µM (inactive)
same,GI50,[8],> 100 µM (inactive)
same,GI50,[9],> 100 µM (inactive)
same,GI50,[10],> 100 µM (inactive)
same,GI50,[11],> 100 µM (inactive)
same,GI50,[12],> 100 µM (inactive)
same,GI50,[13],> 100 µM (inactive)
same,GI50,[14],> 100 µM (inactive)
same,GI50,[15],> 100 µM (inactive)
same,GI50,[16],> 100 µM (inactive)
same,GI50,[17],> 100 µM (inactive)
same,GI50,[18],> 100 µM (inactive)
same,GI50,[19],> 100 µM (inactive)
same,GI50,[20],> 100 µM (inactive)
same,GI50,[21],> 100 µM (inactive)
same,GI50,[22],> 100 µM (inactive)
same,GI50,[23],> 100 µM (inactive)
same,GI50,[24],> 100 µM (inactive)
same,GI50,[25],> 100 µM (inactive)
same,GI50,[26],> 100 µM
same,GI50,[27],> 100 µM (inactive)
same,GI50,[28],> 100 µM (inactive)
same,GI50,[29],> 100 µM (inactive)
same,GI50,[30],> 100 µM (inactive)
same,GI50,[31],> 100 µM (inactive)
same,GI50,[32],> 100 µM (inactive)
same,GI50,[33],> 100 µM (inactive)
same,GI50,[34],> 100 µM (inactive)
same,GI50,[35],> 100 µM (inactive)
same,GI50,[36],> 100 µM (inactive)
same,GI50,[37],> 100 µM (inactive)
same,GI50,[38],> 100 µM (inactive)
same,GI50,[39],> 100 µM (inactive)
same,GI50,[40],> 100 µM (inactive)
same,GI50,[41],> 100 µM (inactive)
same,GI50,[42],> 100 µM (inactive)
same,GI50,[43],> 100 µM (inactive)
same,GI50,[44],> 100 µM (inactive)
same,GI50,[45],> 100 µM (inactive)
same,GI50,[46],> 100 µM (inactive)
O=c1[nH]c(=O)n(COCc2ccccc2)c2ccc([N+](=O)[O-])cc12,GI50,[47],> 100 µM (inactive)
same,GI50,[1],> 100 µM (inactive)
same,GI50,[48],> 100 µM (inactive)
same,GI50,[2],> 100 µM (inactive)
same,GI50,[3],> 100 µM (inactive)
same,GI50,[4],> 100 µM (inactive)
same,GI50,[5],> 100 µM (inactive)
same,GI50,[6],25.6 µM (inactive)
same,GI50,[49],> 100 µM (inactive)
same,GI50,[7],> 100 µM (inactive)
same,GI50,[8],56.5 µM (inactive)
same,GI50,[9],> 100 µM (inactive)
same,GI50,[11],> 100 µM (inactive)
same,GI50,[12],> 100 µM (inactive)
same,GI50,[13],> 100 µM (inactive)
same,GI50,[14],> 100 µM (inactive)
same,GI50,[15],> 100 µM (inactive)
same,GI50,[16],> 100 µM (inactive)
same,GI50,[50],> 100 µM (inactive)
same,GI50,[17],> 100 µM (inactive)
same,GI50,[18],> 100 µM (inactive)
same,GI50,[51],> 100 µM (inactive)
same,GI50,[19],> 100 µM (inactive)
same,GI50,[20],> 100 µM (inactive)
same,GI50,[52],> 100 µM (inactive)
same,GI50,[22],> 100 µM (inactive)
same,GI50,[23],> 100 µM (inactive)
same,GI50,[26],> 100 µM
same,GI50,[27],4.85 µM (inactive)
same,GI50,[53],> 100 µM (inactive)
same,GI50,[28],> 100 µM (inactive)
same,GI50,[54],> 100 µM (inactive)
same,GI50,[29],> 100 µM (inactive)
same,GI50,[55],> 100 µM (inactive)
same,GI50,[30],> 100 µM (inactive)
same,GI50,[31],> 100 µM (inactive)
same,GI50,[32],> 100 µM (inactive)
same,GI50,[33],> 100 µM (inactive)
same,GI50,[34],> 100 µM (inactive)
same,GI50,[35],> 100 µM (inactive)
same,GI50,[36],35.2 µM (inactive)
same,GI50,[37],> 100 µM (inactive)
same,GI50,[38],> 100 µM (inactive)
same,GI50,[39],> 100 µM (inactive)
same,GI50,[56],> 100 µM (inactive)
same,GI50,[42],> 100 µM (inactive)
same,GI50,[44],80 µM (inactive)
same,GI50,[45],> 100 µM (inactive)
NCc1ccc(-c2ccc(-c3ccc(-c4ccc(CN)s4)s3)s2)s1,GI50,[47],> 100 µM (inactive)
same,GI50,[1],> 100 µM (inactive)
same,GI50,[48],> 100 µM (inactive)
same,GI50,[2],> 100 µM (inactive)
same,GI50,[3],> 100 µM (inactive)
same,GI50,[4],> 100 µM (inactive)
same,GI50,[5],> 100 µM (inactive)
same,GI50,[6],> 100 µM (inactive)
same,GI50,[49],> 100 µM (inactive)
same,GI50,[7],> 100 µM (inactive)
same,GI50,[8],> 100 µM (inactive)
same,GI50,[9],> 100 µM (inactive)
same,GI50,[10],> 100 µM (inactive)
same,GI50,[11],> 100 µM (inactive)
same,GI50,[12],> 100 µM (inactive)
same,GI50,[13],> 100 µM (inactive)
same,GI50,[14],> 100 µM (inactive)
same,GI50,[15],> 100 µM (inactive)
same,GI50,[16],> 100 µM (inactive)
same,GI50,[50],> 100 µM (inactive)
same,GI50,[17],> 100 µM (inactive)
same,GI50,[18],> 100 µM (inactive)
same,GI50,[51],> 100 µM (inactive)
same,GI50,[19],> 100 µM (inactive)
same,GI50,[20],> 100 µM (inactive)
same,GI50,[21],> 100 µM (inactive)
same,GI50,[52],> 100 µM (inactive)
same,GI50,[22],> 100 µM (inactive)
same,GI50,[23],> 100 µM (inactive)
same,GI50,[24],> 100 µM (inactive)
same,GI50,[25],> 100 µM (inactive)
same,GI50,[26],> 100 µM
same,GI50,[27],> 100 µM (inactive)
same,GI50,[28],> 100 µM (inactive)
same,GI50,[54],> 100 µM (inactive)
same,GI50,[29],> 100 µM (inactive)
same,GI50,[55],> 100 µM (inactive)
same,GI50,[30],> 100 µM (inactive)
same,GI50,[31],> 100 µM (inactive)
same,GI50,[32],> 100 µM (inactive)
same,GI50,[33],> 100 µM (inactive)
same,GI50,[34],> 100 µM (inactive)
same,GI50,[35],> 100 µM (inactive)
same,GI50,[36],> 100 µM (inactive)
same,GI50,[37],> 100 µM (inactive)
same,GI50,[38],> 100 µM (inactive)
same,GI50,[39],> 100 µM (inactive)
same,GI50,[40],> 100 µM (inactive)
same,GI50,[56],> 100 µM (inactive)
same,GI50,[41],> 100 µM (inactive)
same,GI50,[42],> 100 µM (inactive)
same,GI50,[44],> 100 µM (inactive)
same,GI50,[45],> 100 µM (inactive)
same,GI50,[46],> 100 µM (inactive)
